This is an account of results in patent US5716797A, “Stable two-part reagent for the measurement of creatine kinase activity” (Wako Pure Chemical Industries, Ltd., priority 1995, dated 1998).

Values joined by “and” are separate entries in the source; they are usually repeats but may differ in a detail not shown here. Identical values can stand only once. Like-named read-outs stand apart in the source and are kept apart here.

The series has as its system creatine kinase (CK) in human serum. Put plainly: CK activity measured with enzyme solutions containing SH compounds as CK reactivator, fresh and after 1 month of storage (Example 1 / Comparative Example 1). The class given is biochemical. Particulars: for CK activity, relative value: NAC just after preparation = 100%. The procedure:
The resulting solution was adjusted to pH 6.7 with sodium hydroxide and stored at a predetermined temperature for a predetermined period. The thus obtained solution were used as enzyme solutions.
Five fresh human serum samples were used.
To 8 μl of each sample was added 320 μl of each enzyme solution, followed by preincubation for 5 minutes. Then, 80 μl of the substrate solution was added to initiate the reaction and the change of absorbance per minute was measured for 3 minutes from 2 minutes after the addition of the substrate solution. The CK activity value was calculated from the molecular extinction coefficient of the NADPH produced.
As a measuring apparatus, an Autoanalyzer Hitachi Model 7150 was used, and the measurement was carried out at 37° C. by use of dual wavelength (λ1 =405 nm, λ2 =340 nm).
Enzyme solutions were prepared in the same manner as in Example 1 by use of the same reagents as in Example 1 except for using a predetermined concentration(s) of one or two SH compounds properly selected from the above-mentioned CK reactivators, in place of the CK reactivator(s) used in Example 1.
CK activity was measured in the same manner as in Example 1.

The mark [1] stands for this setting: Sample 1, enzyme solution just after preparation, TG 100 mM, 2ME 26 mM, 2MES 26 mM, NAC 26 mM.
Where [2] appears, read: Sample 2, enzyme solution just after preparation, TG 100 mM, 2ME 26 mM, 2MES 26 mM, NAC 26 mM.
[3] abbreviates: Sample 2, enzyme solution stored at 10° C. for 1 month, TG 100, 2ME 26, 2MES 26, NAC 26, L-cysteine 6.5, GSH 12, TDG 5, DTT 6.5 mM.
[4] abbreviates: Sample 2, enzyme solution stored at 20° C. for 1 month, TG 100, 2ME 26, 2MES 26, NAC 26, L-cysteine 6.5, GSH 12, TDG 5, DTT 6.5 mM.
[5] abbreviates: Sample 3, enzyme solution just after preparation, TG 100 mM, 2ME 26 mM, 2MES 26 mM, NAC 26 mM.
Where [6] appears, read: Sample 3, enzyme solution stored at 10° C. for 1 month, TG 100, 2ME 26, 2MES 26, NAC 26, L-cysteine 6.5, GSH 12, TDG 5, DTT 6.5 mM.
The mark [7] stands for this setting: Sample 3, enzyme solution stored at 20° C. for 1 month, TG 100, 2ME 26, 2MES 26, NAC 26, L-cysteine 6.5, GSH 12, TDG 5, DTT 6.5 mM.
The mark [8] stands for this setting: Sample 4, enzyme solution just after preparation, TG 100 mM, 2ME 26 mM, 2MES 26 mM, NAC 26 mM.
[9] abbreviates: Sample 4, enzyme solution stored at 10° C. for 1 month, TG 100, 2ME 26, 2MES 26, NAC 26, L-cysteine 6.5, GSH 12, TDG 5, DTT 6.5 mM.
Where [10] appears, read: Sample 4, enzyme solution stored at 20° C. for 1 month, TG 100, 2ME 26, 2MES 26, NAC 26, L-cysteine 6.5, GSH 12, TDG 5, DTT 6.5 mM.
Where [11] appears, read: Sample 5, enzyme solution just after preparation, TG 100 mM, 2ME 26 mM, 2MES 26 mM, NAC 26 mM.
The mark [12] stands for this setting: Sample 5, enzyme solution stored at 10° C. for 1 month, TG 100, 2ME 26, 2MES 26, NAC 26, L-cysteine 6.5, GSH 12, TDG 5, DTT 6.5 mM.
The mark [13] stands for this setting: Sample 5, enzyme solution stored at 20° C. for 1 month, TG 100, 2ME 26, 2MES 26, NAC 26, L-cysteine 6.5, GSH 12, TDG 5, DTT 6.5 mM.
[14] abbreviates: average of 5 samples, enzyme solution just after preparation, TG 100 mM, 2ME 26 mM, 2MES 26 mM, NAC 26 mM.
Where [15] appears, read: average of 5 samples, enzyme solution stored at 10° C. for 1 month, TG 100, 2ME 26, 2MES 26, NAC 26, L-cysteine 6.5, GSH 12, TDG 5, DTT 6.5 mM.
[16] abbreviates: average of 5 samples, enzyme solution stored at 20° C. for 1 month, TG 100, 2ME 26, 2MES 26, NAC 26, L-cysteine 6.5, GSH 12, TDG 5, DTT 6.5 mM.
The mark [17] stands for this setting: enzyme solution just after preparation.
Setting [18] is: enzyme solution stored at 10° C. for 1 month.
[19] abbreviates: enzyme solution stored at 20° C. for 1 month.
The mark [20] stands for this setting: Sample 1, enzyme solution stored at 20° C. for 1 month, TG 100, 2ME 26, 2MES 26, NAC 26, L-cysteine 6.5, GSH 12, TDG 5, DTT 6.5 mM.

As for `OCCS` [2ME, 2-mercaptoethanol], the “retaining CK-reactivating ability for a long period of time in an aqueous solution” value is “capable of retaining CK-reactivating ability for a long period of time”. The CK activity value under setting [1] came out at 186 IU/l. This compound also displayed a CK activity value under setting [2] of 554 IU/l. In addition, the CK activity value under setting [3] amounted to 559 IU/l. Further, the CK activity value under setting [4] came out at 559 IU/l. The CK activity value under setting [5] is on record as 151 IU/l. The CK activity value under setting [6] was 155 IU/l. In addition, under setting [7], the CK activity value amounted to 155 IU/l. The same compound had a CK activity value under setting [8] of 58 IU/l. Also, under setting [9], the CK activity value was found to be 59 IU/l. The compound also had a CK activity value under setting [10] of 58 IU/l. The same compound showed a CK activity value under setting [11] of 89 IU/l. For the same compound, the CK activity value under setting [12] came to 89 IU/l. Further, under setting [13], the CK activity value is reported as 89 IU/l. The “CK activity value, Average” value under setting [14] came out at 208 IU/l. Also, the “CK activity value, Average” value under setting [15] is recorded as 210 IU/l. The “CK activity value, Average” value under setting [16] was 209 IU/l. For the same compound, under setting [17], the “CK activity, relative value” is given as 101.9%. Also, under setting [18], the “CK activity, relative value” is on record as 102.8%. For the same compound, under setting [19], the “CK activity, relative value” worked out at 102.4%.
In the case of `O=S(=O)(O)CCS` [2MES, 2-mercaptoethanesulfonic acid], the CK activity value stood at 184 IU/l and the “retaining CK-reactivating ability for a long period of time in an aqueous solution” value is “capable of retaining CK-reactivating ability for a long period of time”. In addition, under setting [1], the CK activity value is reported as 184 IU/l. The compound further had a CK activity value under setting [20] of 181 IU/l. Under setting [2], this compound had a CK activity value of 553 IU/l. Moreover, the CK activity value under setting [3] came out at 548 IU/l. Moreover, the CK activity value under setting [4] is 542 IU/l. Under setting [5], this compound yielded a CK activity value of 151 IU/l. Besides, under setting [6], the CK activity value came to 147 IU/l. The compound further registered a CK activity value under setting [7] of 148 IU/l. Under setting [8], this compound yielded a CK activity value of 58 IU/l. The compound also yielded a CK activity value under setting [9] of 55 IU/l. The same compound yielded a CK activity value under setting [10] of 55 IU/l. The compound also showed a CK activity value under setting [11] of 88 IU/l. The CK activity value under setting [12] is 85 IU/l. The CK activity value under setting [13] was 87 IU/l. Under setting [14], the “CK activity value, Average” value turned out to be 207 IU/l. Besides, the “CK activity value, Average” value under setting [15] is reported as 204 IU/l. Moreover, under setting [16], the “CK activity value, Average” value turned out to be 203 IU/l. Also, the “CK activity, relative value” under setting [17] was 101.4%. Moreover, the “CK activity, relative value” under setting [18] is recorded as 99.9%. Besides, the “CK activity, relative value” under setting [19] is given as 96.3%.
Consider `N[C@@H](CCC(=O)N[C@@H](CS)C(=O)NCC(=O)O)C(=O)O` [GSH, reduced-form glutathione], for which the “CK activity value, Average” value was 192 IU/l and 167 IU/l. The “CK activity, relative value” under setting [18] came out at 94.1%. Further, the “CK activity, relative value” under setting [19] is 81.9%.
Turning to `N[C@@H](CS)C(=O)O` [L-cysteine], the CK activity value is, setting by setting: (Sample 1, enzyme solution stored at 10° C. for 1 month, TG 100, 2ME 26, 2MES 26, NAC 26, L-cysteine 6.5, GSH 12, TDG 5, DTT 6.5 mM) 140 IU/l; under setting [20], 52 IU/l; under setting [3], 437 IU/l; under setting [4], 175 IU/l; under setting [6], 110 IU/l; under setting [7], 33 IU/l. Also, the CK activity value under setting [9] is reported as 42 IU/l, the CK activity value under setting [10] came out at 12 IU/l, the CK activity value under setting [12] was determined as 63 IU/l and the CK activity value under setting [13] stood at 19 IU/l. For the same compound, the “CK activity value, Average” value by setting is: under setting [15], 158 IU/l; under setting [16], 58 IU/l. Further, the “CK activity, relative value” under setting [18] was found to be 77.5% and the “CK activity, relative value” under setting [19] was 28.4%.
